# Results reported in the Deep4Chem optical property database.
# Assay: photoluminescence quantum yield (fraction); solvent given as SMILES
compound,measurement,setting,value
CCC1=C(C2=C(C3=C(CC)S(=O)(=O)c4cc(-c5ccc(C)s5)ccc43)C(F)(F)C(F)(F)C2(F)F)c2ccc(-c3ccc(C)s3)cc2S1(=O)=O,photoluminescence quantum yield,in C1COCCO1,0
F[B-]1(F)n2c(c3cccc4cccc2c43)=Nc2cccc(Cl)[n+]21,photoluminescence quantum yield,in C1CCOC1,0.99
same,photoluminescence quantum yield,in CC#N,0.99
same,photoluminescence quantum yield,in CCCCCC,0.99
same,photoluminescence quantum yield,in Cc1ccccc1,0.99
same,photoluminescence quantum yield,in ClCCl,0.99
Cc1cc(-c2nnc(-c3ccccc3)o2)ccc1-n1c2ccccc2c2ccccc21,photoluminescence quantum yield,in Cc1ccccc1,0.56
CC[Si](CC)(CC)Oc1cccc(O[Si](CC)(CC)CC)c1-c1c2ccccc2c(-c2c(O[Si](CC)(CC)CC)cccc2O[Si](CC)(CC)CC)c2ccccc12,photoluminescence quantum yield,in C1CCCCC1,0.96
NS(=O)(=O)c1ccc(N2N=C(c3ccc(O)cc3)CC2c2ccc(F)cc2)cc1 (stereo not drawn),photoluminescence quantum yield,in C1CCOC1,0.88
same,photoluminescence quantum yield,in C1COCCO1,0.78
same,photoluminescence quantum yield,in CC#N,0.75
same,photoluminescence quantum yield,in CC(C)O,0.52
same,photoluminescence quantum yield,in CCO,0.47
same,photoluminescence quantum yield,in CCOC(C)=O,0.87
same,photoluminescence quantum yield,in CN(C)C=O,0.89
same,photoluminescence quantum yield,in CO,0.36
same,photoluminescence quantum yield,in CS(C)=O,0.93
same,photoluminescence quantum yield,in O,0.57
F[B-]1(F)OC(c2cccc(Br)c2)=Cc2c3ccccc3c3ccccc3[n+]21,photoluminescence quantum yield,in ClC(Cl)Cl,0.106
Cc1ccc(-c2ccc(-c3ccc(-c4ccc(C)cc4)cc3/C(=C(/c3ccccc3)c3cc(-c4ccc(C)cc4)ccc3-c3ccc(-c4ccc(C)cc4)cc3)c3ccccc3)cc2)cc1,photoluminescence quantum yield,in C1CCOC1,0.3
Cc1sc(-c2ccc(-c3nc(-c4ccccc4)c(-c4ccccc4)[nH]3)cc2)c(C)c1C1=C(c2c(C)n(C)c3ccccc23)C(F)(F)C(F)(F)C1(F)F,photoluminescence quantum yield,in C1CCOC1,0.084
CC1(C)CC(=O)C2=C(C1)Oc1ccc3cc(O)ccc3c1C2c1ccccn1 (stereo not drawn),photoluminescence quantum yield,in C1CCOC1,0.062
same,photoluminescence quantum yield,in C1COCCO1,0.028
same,photoluminescence quantum yield,in CC#N,0.082
same,photoluminescence quantum yield,in CCCCCCC,0.05
same,photoluminescence quantum yield,in CCO,0.067
same,photoluminescence quantum yield,in CO,0.066
same,photoluminescence quantum yield,in O,0.38
CCN1c2ccc(/C=N/Nc3ccccn3)cc2Sc2cc(-c3ccccc3)ccc21,photoluminescence quantum yield,in C1CCOC1,0.26
same,photoluminescence quantum yield,in CS(C)=O,0.37
same,photoluminescence quantum yield,in Cc1ccccc1,0.17
same,photoluminescence quantum yield,in ClCCl,0.27
CCCCCCCCc1ccc(-c2ccc(/C=C(\C#N)c3ccc(-c4cccc5cccc(-c6ccc(/C(C#N)=C/c7ccc(-c8ccc(CCCCCCCC)cc8)cc7)cc6)c45)cc3)cc2)cc1,photoluminescence quantum yield,in Cc1ccccc1,0.12
COc1cccc(-c2nc3c([nH]2)C2=CC(=O)S[C@]2(C)[C@@]2(C)SC(=O)C=C32)c1OC,photoluminescence quantum yield,in CC#N,0.12
O=c1ccc2ccccc2o1,photoluminescence quantum yield,in O,0.001
NC(=O)CC[C@H](/[NH+]=C\C=C1\C=C(C(=O)O)N[C@H](C(=O)O)C1)C(=O)O,photoluminescence quantum yield,in CCO,0.017
same,photoluminescence quantum yield,in CO,0.011
same,photoluminescence quantum yield,in O,0.0073
same,photoluminescence quantum yield,in OCC(F)(F)F,0.014
same,photoluminescence quantum yield,in OCCO,0.039
c1cc(-c2c3ccccc3c(-c3ccc4ccccc4c3)c3ccccc23)cc(-n2c3ccccc3c3ccccc32)c1,photoluminescence quantum yield,in ClCCl,0.73
COCCOCCOCCOc1ccc(OCCOCCOCCOC)c(C=O)c1,photoluminescence quantum yield,in CC(C)(C)O,0.13
same,photoluminescence quantum yield,in CC(C)CO,0.2
same,photoluminescence quantum yield,in CC(C)O,0.2
same,photoluminescence quantum yield,in CCCCO,0.22
same,photoluminescence quantum yield,in CCCO,0.23
same,photoluminescence quantum yield,in CCO,0.2
same,photoluminescence quantum yield,in CN(C)C=O,0.02
same,photoluminescence quantum yield,in CNC=O,0.14
same,photoluminescence quantum yield,in CO,0.25
same,photoluminescence quantum yield,in NC=O,0.43
same,photoluminescence quantum yield,in O,0.11
F[B-]1(F)n2cccc2C(c2ccc(-c3c4ccccc4c(-c4ccccc4)c4ccccc34)cc2)=C2C=CC=[N+]21,photoluminescence quantum yield,in CC#N,0.001
same,photoluminescence quantum yield,in CCCCCC,0.014
same,photoluminescence quantum yield,in CCO,0.003
same,photoluminescence quantum yield,in CN(C)C=O,0.002
same,photoluminescence quantum yield,in Cc1ccccc1,0.036
same,photoluminescence quantum yield,in ClCCl,0.002
CC(NC(=O)OC(C)(C)C)C(=O)OCc1ccc2c3cccc4cccc(c5cccc1c52)c43 (stereo not drawn),photoluminescence quantum yield,in CCO,0.88
Cn1c2ccccc2c2cc(/C=C/C3=[O+][B-](F)(F)OC(/C=C/c4ccc5c(c4)c4ccccc4n5C)=C3c3ccccc3)ccc21,photoluminescence quantum yield,in ClCCl,0.6
CN1/C(=C/C=C/C2=[N+](C)c3ccccc3C2(C)C)Sc2ccccc21,photoluminescence quantum yield,in CS(C)=O,0.07
c1ccc(-c2nc(-c3ccccc3)nc(-c3ccc(-n4c5ccccc5c5ccc6c7ccccc7n(-c7ccccc7)c6c54)cc3)n2)cc1,photoluminescence quantum yield,in O=P(c1ccccc1)(c1ccccc1)c1ccc2oc3ccc(P(=O)(c4ccccc4)c4ccccc4)cc3c2c1,0.84
N#Cc1c(-n2c3ccccc3c3ccccc32)c(-n2c3ccccc3c3ccccc32)cc(-n2c3ccccc3c3ccccc32)c1-n1c2ccccc2c2ccccc21,photoluminescence quantum yield,in Cc1ccccc1,0.49
C(=C1c2ccccc2CCc2ccccc21)c1ccc(-c2ccc(C=C3c4ccccc4CCc4ccccc43)cc2)cc1,photoluminescence quantum yield,in C1CCOC1,0.0033
CCCCC(CC)COc1ccc2nc(-c3ccc(-c4ccc(OC)cc4)s3)sc2c1 (stereo not drawn),photoluminescence quantum yield,in ClCCl,0.83
CCCCCn1c2cc(/C=C/c3ccc(N(c4ccccc4)c4ccccc4)cc3)ccc2c2ccc(/C=C/c3ccc(N(c4ccccc4)c4ccccc4)cc3)cc21,photoluminescence quantum yield,in Cc1ccccc1,0.81
C(#Cc1cc2ccc3cccc4ccc(c1)c2c34)c1ccccc1,photoluminescence quantum yield,in Cc1ccccc1,0.44
CN1CCc2cc(C3=Cc4cccc[n+]4[B-](F)(F)O3)ccc21,photoluminescence quantum yield,in ClC(Cl)Cl,0.639
CCN(CC)c1ccc(-c2ccc(-c3nc4ccccc4c(=O)[nH]3)s2)cc1,photoluminescence quantum yield,in CC#N,0.28
same,photoluminescence quantum yield,in Cc1ccccc1,0.71
CCC1(CC)c2ccccc2-c2c1c1c(c3c2C(CC)(CC)c2cc(N(c4ccccc4)c4ccccc4)ccc2-3)C(CC)(CC)c2cc(N(c3ccccc3)c3ccccc3)ccc2-1,photoluminescence quantum yield,in C1CCOC1,0.36
COc1ccc2cc(-c3cc4ccc(OC)cc4oc3=O)oc2c1,photoluminescence quantum yield,in CS(C)=O,0.75
C=Cc1ccc(-c2ccc(-c3nnc(-c4ccc(-c5nnc(-c6ccc(-c7ccc(C=C)cc7)s6)o5)cc4)o3)s2)cc1,photoluminescence quantum yield,in ClC(Cl)Cl,0.62
Cc1cc(=O)oc2c3c4c(cc12)CCCN4CCC3,photoluminescence quantum yield,in CCC#N,0.9
same,photoluminescence quantum yield,in CCCCl,0.8
same,photoluminescence quantum yield,in CCO,0.8
same,photoluminescence quantum yield,in OC(C(F)(F)F)C(F)(F)F,0.86
same,photoluminescence quantum yield,in OCC(F)(F)F,0.84
COc1cc(-c2cnc(-c3ccncc3)o2)cc(OC)c1OC,photoluminescence quantum yield,in ClCCl,0.76
CCCCCCn1c2ccccc2c2cc(/C=C/c3cc(=O)oc4cc(C)ccc34)ccc21,photoluminescence quantum yield,in ClC(Cl)Cl,0.38
CN(C)c1[se]c(-c2ccccc2)nc1-c1ccccc1,photoluminescence quantum yield,in ClC(Cl)Cl,0.029
CCCCCCN1C(=O)c2cccc3cc(/N=C\c4cn(C)c5ccccc45)cc(c23)C1=O,photoluminescence quantum yield,in ClC(Cl)Cl,0.03
COc1ccc2n1[B-](F)(F)[N+]1=CC=CC1=C2c1ccccc1,photoluminescence quantum yield,in CC#N,0.02
same,photoluminescence quantum yield,in CCCCCC,0.01
same,photoluminescence quantum yield,in CCOC(C)=O,0.01
same,photoluminescence quantum yield,in CO,0.02
same,photoluminescence quantum yield,in ClCCl,0.02
COc1ccc2c3ccc(OC)cc3n(-c3ccc(-c4nnc(-c5c(C(C)C)cc(C(C)C)cc5C(C)C)o4)cc3)c2c1,photoluminescence quantum yield,in Cc1ccccc1,0.03
c1ccc(-c2cc(-c3ccccc3)cc(-c3ccc4c(c3)C3(c5cc(-c6cc(-c7ccccc7)cc(-c7ccccc7)c6)ccc5-4)c4ccccc4-c4c3c3c5ccccc5ccc3c3ccccc43)c2)cc1,photoluminescence quantum yield,in Cc1ccccc1,0.59
CCN(CC)c1ccc2c(c1)oc(=O)c1c(=O)oc3cc(C#Cc4ccc(C#N)cc4)ccc3c12,photoluminescence quantum yield,in CS(C)=O,0.1
same,photoluminescence quantum yield,in ClCCl,0.69
CC1=CC(C)=[N+]2C1=C(c1ccc(C(=O)OC3C[C@@H]4CC[C@]3(C)C4(C)C)cc1)c1c(C)cc(C)n1[B-]2(F)F (stereo partly drawn),photoluminescence quantum yield,in Cc1ccccc1,0.37
COc1ccccc1-c1c(-c2ccccc2O)nc(-c2ccc(C(F)(F)F)cc2)n1-c1ccc(C)cc1,photoluminescence quantum yield,in C1CCOC1,0.01
same,photoluminescence quantum yield,in CC(C)O,0.01
same,photoluminescence quantum yield,in CO,0.01
same,photoluminescence quantum yield,in CS(C)=O,0.01
same,photoluminescence quantum yield,in ClC(Cl)Cl,0.01
same,photoluminescence quantum yield,in ClCCl,0.01
CC[N+]1(CC)CN2C(C)=CC(C)=C(C(=O)O)C2=N1,photoluminescence quantum yield,in CN(C)C=O,0.056
same,photoluminescence quantum yield,in O,0.622
COc1cc2c(cc1OC)C1=C[C@H](c3ccccc3)C3(C(C(=O)O[C@@H]4C[C@H]5CC[C@@H]4C5)=C(C(=O)O[C@H]4C[C@@H]5CC[C@H]4C5)N1CC2)c1ccccc1-c1ccccc13,photoluminescence quantum yield,in ClCCl,0.00157
CCCCCCN(CCCCCC)c1ccc(C#Cc2ccc([N+](=O)[O-])cc2)cc1,photoluminescence quantum yield,in CO,0.0016
same,photoluminescence quantum yield,in ClCCl,0.0015
COc1ccc(-c2cc3c(cc2OC)-c2c(c4c(c5c2-c2cc(OC)c(-c6ccc(OC)cc6)cc2C5)C(=O)N(CCC(C)C)C4=O)C3)cc1,photoluminescence quantum yield,in C1CCOC1,0.59
c1ccc2c(c1)[nH]c1ncccc12,photoluminescence quantum yield,in CC#N,0.47
same,photoluminescence quantum yield,in CCCCCC,0.31
COc1ccc(-c2ccc(OC)cc2)cc1,photoluminescence quantum yield,in C1CCCCC1,0.31
Clc1ccc(-c2cccc3ncc(-c4ccccc4)n23)cc1,photoluminescence quantum yield,in ClCCl,0.42
CCn1c2ccccc2c2cc(-c3cc(-c4ccc5c(c4)c4ccccc4n5CC)nc(-c4ccc(C#N)cc4)n3)ccc21,photoluminescence quantum yield,in C1CCOC1,0.08
same,photoluminescence quantum yield,in CCOC(C)=O,0.09
same,photoluminescence quantum yield,in CN(C)C=O,0.07
same,photoluminescence quantum yield,in Cc1ccccc1,0.34
same,photoluminescence quantum yield,in ClCCl,0.11
CCOC(=O)c1nn(-c2ccc(OC)cc2)nc1N1CCCC1,photoluminescence quantum yield,in CC#N,0.731
CN(C)c1ccc(C(=O)Nc2ccccc2)cc1,photoluminescence quantum yield,in C1CCCCC1,0.0011
same,photoluminescence quantum yield,in C1CCOC1,0.0061
same,photoluminescence quantum yield,in CC#N,0.0107
same,photoluminescence quantum yield,in CCOCC,0.0036
O=C([O-])c1ccc(C(=O)[O-])c(C2=c3cc4c5c(c3Oc3c2cc2c6c3CCCN6CCC2)CCC[N+]=5CCC4)c1,photoluminescence quantum yield,in CCO,0.83
same,photoluminescence quantum yield,in O,0.64
Cc1cc(C)c(C2=C(c3c(C)sc(-c4ccc(-c5nc(-c6ccccc6)c(-c6ccccc6)[nH]5)cc4)c3C)C(F)(F)C(F)(F)C2(F)F)s1,photoluminescence quantum yield,in C1CCOC1,0.091
C(=C\c1cnc2ccccc2n1)/c1ccc(N(c2ccccc2)c2ccccc2)cc1,photoluminescence quantum yield,in ClCCl,0.67
CC(C)(C)NC(=O)c1ccc(-c2ccccc2)c2ccc3c4ccccc4c4ccccc4c3c12,photoluminescence quantum yield,in ClCCl,0.08
